In patent US20100120788A1, “IDENTIFICATION OF POLYNUCLEOTIDES FOR […] OF COMPOUNDS THAT […] WITH AND/OR MODULATE PROTEIN TYROSINE KINASES AND/OR PROTEIN TYROSINE KINASE […] IN PROSTATE CELLS” (Bristol-Myers Squibb Company, priority 2007, published 2010):

Experiments:
Assay in all cases: In vitro cell proliferation assay (MTS)
Assay type in all cases: cell-based, human
PC3 = PC3 cells
Experimental: (§1) The IC50 for each cell line was assessed in by MTS assays as described in Example 1 (Methods). […] The IC50 unit is μM.
(§2) All cell lines were obtained from the American Type Culture Collection (Manassas, Va.), except DUCaP, which was obtained from Dr. Kenneth Pienta at University of Michigan. PWR1E and MDAPCa2b cells were grown in BRFF-HPC1 serum-free medium (AthenaES, Baltimore, Md.), and all other cells were cultured in RPMI 1640 supplemented with 10% fetal bovine serum, 100 IU/ml penicillin, and […] (Invitrogen, Carlsbad, Calif.). DUCaP cells were maintained in the presence of an immortalized mouse fibroblast cell line, which formed a layer beneath DUCaP cells that easily dislodged. Cells were incubated at 37° C. with circulation of 5% CO2.
(§3) The optimum number of cells to seed in 96-well plates to achieve linearity were determined in pilot experiments. Cells were plated at density of 2000-5000 cells/well into 96-well plates and cultured overnight. Cells were then treated with dasatinib at serially diluted concentrations. Three days later, MTS was added to the medium and quantified on a SPECTRAMAX® photometric plate reader (Molecular Devices, Sunnyvale, Calif.) at 490 nm. The results were plotted against drug concentrations and IC50s were calculated using Prism4 software (GraphPad, San Diego, Calif.). The IC50 was the concentration of dasatinib that would reduce cell proliferation by 50% compared to control. Minimum three independent assays were performed for each cell line. […] In the latter case, the concentration of dasatinib that was able to consistently reduce cell proliferation was used as IC50. […] Dasatinib stock, dissolved in DMSO, was 10 mg/ml.

22Rvl = 22Rvl cells
Experimental: as §1, §2, §3

MDAPCa2b = MDAPCa2b cells
Experimental: as §1, §2, §3

VCaP = VCaP cells
Experimental: as §1, §2, §3

NB11 = NB11 cells
Experimental: as §1, §2, §3

HPV7 = HPV7 cells
Experimental: as §1, §2, §3

RWPE2 = RWPE2 cells
Experimental: as §1, §2, §3

DUCaP = DUCaP cells
Experimental: as §1, §2, §3

HPV10 = HPV10 cells
Experimental: as §1, §2, §3

DU145 = DU145 cells
Experimental: as §1, §2, §3

WPMY1 = WPMY1 cells
Experimental: as §1, §2, §3

LNCaP = LNCaP cells
Experimental: as §1, §2, §3

NB26 = NB26 cells
Experimental: as §1, §2, §3

PWR1E = PWR1E cells
Experimental: as §1, §2, §3

RWPE1 = RWPE1 cells
Experimental: as §1, §2, §3

W99 = W99 cells
Experimental: as §1, §2, §3

[1] = Homo sapiens, 72 h, MTS, three days, highly resistant: concentration that consistently reduced proliferation used as IC50, read-out: mean IC50 (μM) to BMS-A
[2] = Homo sapiens, 72 h, MTS, three days, read-out: mean IC50 (μM) to BMS-A

Q: With `Cc1nc(Nc2ncc(C(=O)Nc3c(C)cccc3Cl)s2)cc(N2CCN(CCO)CC2)n1` [BMS-A, N-(2-chloro-6-methylphenyl)-2-[[6-[4-(2-hydroxyethyl)-1-piperazinyl]-2-methyl-4-pyrimidinyl]amino]-5-thiazolecarboxamide] as the compound, how does the IC50 (PC3; Homo sapiens, PC-3, 72 h, MTS, three days, read-out: mean IC50 (μM) to BMS-A) read?
A: Its IC50 is 0.051 µM.

Q: What about the Classification (PC3; based on IC50) of the same compound?
A: The Classification was “Sensitive (The cell lines with an IC50 lower than 0.2 μm were defined as sensitive to the compound)”.

Q: What about the Classification (22Rvl; based on IC50) of the same compound?
A: The Classification was “Resistant (those having an IC50 above 0.2 μm were considered to be resistant)”.

Q: And the IC50 (22Rvl; [1])?
A: Its IC50 is 2 µM.

Q: And the IC50 (MDAPCa2b; Homo sapiens, MDA-PCa-2b, 72 h, MTS, three days, highly resistant: concentration that consistently reduced proliferation used as IC50, read-out: mean IC50 (μM) to BMS-A)?
A: The IC50 was 2.5 µM.

Q: And the Classification (MDAPCa2b; based on IC50)?
A: The Classification was “Resistant (those having an IC50 above 0.2 μm were considered to be resistant)”.

Q: And the IC50 (VCaP; [1])?
A: The IC50 was 2 µM.

Q: What about the Classification (VCaP; based on IC50) of the same compound?
A: Its Classification is “Resistant (those having an IC50 above 0.2 μm were considered to be resistant)”.

Q: What about the IC50 (NB11; [2]) of the same compound?
A: Its IC50 is 0.163 µM.

Q: And the Classification (NB11; based on IC50)?
A: The Classification was “Sensitive (The cell lines with an IC50 lower than 0.2 μm were defined as sensitive to the compound)”.

Q: What about the Classification (HPV7; based on IC50) of the same compound?
A: The Classification was “Sensitive (The cell lines with an IC50 lower than 0.2 μm were defined as sensitive to the compound)”.

Q: And the IC50 (HPV7; [2])?
A: Its IC50 is 0.127 µM.

Q: What about the IC50 (RWPE2; [2]) of the same compound?
A: Its IC50 is 0.151 µM.

Q: What about the Classification (RWPE2; based on IC50) of the same compound?
A: Its Classification is “Sensitive (The cell lines with an IC50 lower than 0.2 μm were defined as sensitive to the compound)”.

Q: And the Classification (DUCaP; based on IC50)?
A: The Classification was “Resistant (those having an IC50 above 0.2 μm were considered to be resistant)”.

Q: What about the IC50 (DUCaP; [1]) of the same compound?
A: Its IC50 is 2.5 µM.

Q: And the Classification (HPV10; based on IC50)?
A: The Classification was “Sensitive (The cell lines with an IC50 lower than 0.2 μm were defined as sensitive to the compound)”.

Q: What about the IC50 (HPV10; [2]) of the same compound?
A: The IC50 was 0.058 µM.

Q: What about the Classification (DU145; based on IC50) of the same compound?
A: The Classification was “Sensitive (The cell lines with an IC50 lower than 0.2 μm were defined as sensitive to the compound)”.

Q: What about the IC50 (DU145; Homo sapiens, DU-145, 72 h, MTS, three days, read-out: mean IC50 (μM) to BMS-A) of the same compound?
A: Its IC50 is 0.057 µM.

Q: What about the IC50 (WPMY1; Homo sapiens, WPMY-1, 72 h, MTS, three days, highly resistant: concentration that consistently reduced proliferation used as IC50, read-out: mean IC50 (μM) to BMS-A) of the same compound?
A: Its IC50 is 2.5 µM.

Q: And the Classification (WPMY1; based on IC50)?
A: Its Classification is “Resistant (those having an IC50 above 0.2 μm were considered to be resistant)”.

Q: And the IC50 (LNCaP; [2])?
A: The IC50 was 0.068 µM.

Q: What about the Classification (LNCaP; based on IC50) of the same compound?
A: Its Classification is “Sensitive (The cell lines with an IC50 lower than 0.2 μm were defined as sensitive to the compound)”.

Q: What about the IC50 (NB26; [2]) of the same compound?
A: The IC50 was 0.139 µM.

Q: What about the Classification (NB26; based on IC50) of the same compound?
A: Its Classification is “Sensitive (The cell lines with an IC50 lower than 0.2 μm were defined as sensitive to the compound)”.

Q: What about the IC50 (PWR1E; Homo sapiens, PWR-1E, 72 h, MTS, three days, read-out: mean IC50 (μM) to BMS-A) of the same compound?
A: The IC50 was 0.145 µM.

Q: And the Classification (PWR1E; based on IC50)?
A: The Classification was “Sensitive (The cell lines with an IC50 lower than 0.2 μm were defined as sensitive to the compound)”.

Q: And the IC50 (RWPE1; Homo sapiens, RWPE-1, 72 h, MTS, three days, read-out: mean IC50 (μM) to BMS-A)?
A: The IC50 was 0.12 µM.

Q: And the Classification (RWPE1; based on IC50)?
A: Its Classification is “Sensitive (The cell lines with an IC50 lower than 0.2 μm were defined as sensitive to the compound)”.

Q: And the IC50 (W99; [2])?
A: The IC50 was 0.199 µM.

Q: What about the Classification (W99; based on IC50) of the same compound?
A: The Classification was “Sensitive (The cell lines with an IC50 lower than 0.2 μm were defined as sensitive to the compound)”.
